In US20090093517A1, “BIS1,2,3,4-TETRAHYDROISOQUINOLINE DERIVATIVES AND THEIR USES AS PHARMACEUTICALS” (UNIVERSITE DE LIEGE, priority 2006, published 2009):
Where a name gives a salt, the structure may show the parent alone.

System: apamin-sensitive sites of the SK channels
Assay: Competition binding between 125I-apamin and bis-tetrahydroisoquinoline derivatives on rat cortical synaptosomes
Conditions: for % of 125I-apamin displaced at 10 μM: 10 μM compound, ±10 pM 125I-apamin, rat cortical synaptosomes, 1 h at 0° C.; for Ki / potential to interact with apamin-sensitive sites compared with NML: comparison in words with N-Methyl-Laudanosine; for Ki: separated stereoisomers, rat cortical apamin sensitive sites, 125I-apamin
Description: These experiments are used to evaluate the potency of the bis-tetrahydroisoquinoline derivatives to interact with the apamin-sensitive sites of the SK channels, the selected target for which a blockade is expected to be useful in the treatment of Alzheimer's disease, Parkinson's disease, schizophrenia, cognitive dysfunction, or depression. Two reference compounds are also tested for comparison
Rats (male Wistar, ±250 g) were killed by decapitation and the brains were quickly removed and kept on ice during dissection. Crude cortex was dispersed in 0.32 M sucrose by using a Pottero homogenizer. After a first centrifugation at 1500×g for 10 min, the supernatant was centrifuged at 25000×g for 10 min. The resulting pellet was dispersed in 5 mL 0.32 M sucrose to be aliquoted. Protein concentration was determined by the method of Hartree with bovine serum albumin as a standard.^36
The buffer consisted of a 10 mM Tris-HCl (pH 7.5) solution containing 5.4 mM KCl and 0.1% bovine serum albumin. The radioligand was ^125I-apamin (Perkin-Elmer, Specific activity 81.4 TBq mmol^−1). Glass fibre filters (Whatman GF/C) used in these experiments were coated for 1 h in 0.5% polyethylenimine and then washed with 2.5 mL of the ice-cold buffer just before use. Binding experiments were always terminated as follows. Aliquots were filtered under reduced pressure through Whatman filters. Filters were rapidly washed twice with 2.5 mL of buffer. The radioactivity remaining on the filter was evaluated with a Packard Tri-Carb 1600TR liquid scintillation analyser with an efficacy of 69%. ^125I-apamin binding to the filters was also estimated in the absence of synaptosomes. This binding was also substracted from the total binding. Curve fitting was carried out using GraphPad Prism.
Saturation Binding Experiments—Synaptosomes (0.2 mg of protein/mL) were incubated with increasing concentrations of ^125I-apamin (25 μL) with 975 μL of incubation buffer for 1 h at 0° C. Samples were then filtered on Whatman GF/C filter and the radioactivity was measured as described above. Non specific binding was determined in parallel experiments in the presence of an excess of unlabeled apamin (0.1 μM) and subtracted from the total binding to obtain the specific binding.
Competition Experiments between ^125I-apamin and Bis-tetrahydroisoquinoline derivatives—Synaptosomes (0.2 mg of protein/mL) were incubated for 1 h at 0° C. with ±10 pM of ^125I-apamin (25 μL) and nine concentrations of bis-tetrahydroisoquinoline derivatives (10^−4 to 10^−7 M). Non specific binding was determined in the presence of an excess of unlabeled apamin (0.1 μM). Samples were then filtered on Whatman filter and the radioactivity was measured as described above.

## m-bis[1-(6,7,8-trimethoxy-2-methyl-1,2,3,4-tetrahydroisoquinolyl)]-xylene hydrochloride [Compound 4q]
  % of 125I-apamin displaced at 10 μM: 60%

## COc1cc2c(cc1OC)C(CCCCCC1c3cc(OC)c(OC)cc3CCN1C)N(C)CC2.Cl (centres unmarked) [Compound 4f E1, 1,5-bis[1-(6,7-dimethoxy-2-methyl-1,2,3,4-tetrahydroisoquinolyl)]-pentane hydrochloride]
  Ki / potential to interact with apamin-sensitive sites compared with NML: Ki superior to NML
Listed as 4f E1, hydrochloride
  Ki: 592 ± 14 nM

## COc1cc2c(c(OC)c1OC)[C@@H](CCC[C@H]1c3c(cc(OC)c(OC)c3OC)CCN1C)N(C)CC2 [Compound 4g MESO, 1,3-bis[1-(6,7,8-trimethoxy-2-methyl-1,2,3,4-tetrahydroisoquinolyl)]-propane hydrochloride]
  Ki: 1670 ± 77 nM

## COc1cc2c(cc1OC)[C@@H](Cc1ccc(C[C@H]3c4cc(OC)c(OC)cc4CCN3C)cc1)N(C)CC2 [Compound 4n MESO]
  Ki: 566 ± 26 nM

## m-Bis[1-(2-methyl-1,2,3,4-tetrahydroisoquinolyl)]-xylene hydrochloride [Compound 4k]
  % of 125I-apamin displaced at 10 μM: 29%

## COc1cc2c(cc1OC)C(CCCCCC1c3cc(OC)c(OC)cc3CCN1C)N(C)CC2 (centres unmarked) [Compound 4f E2, 1,5-bis[1-(6,7-dimethoxy-2-methyl-1,2,3,4-tetrahydroisoquinolyl)]-pentane hydrochloride]
Listed as 4f E2, hydrochloride
  Ki: 1300 ± 39 nM

## COc1cc2c(cc1OC)C(CCCCC1c3cc(OC)c(OC)cc3CCN1C)N(C)CC2 (stereo not drawn) [Compound 4e MESO, 1,4-bis[1-(6,7-dimethoxy-2-methyl-1,2,3,4-tetrahydroisoquinolyl)]-butane hydrochloride]
Listed as 4e MESO, hydrochloride
  Ki: 1070 ± 124 nM

## COc1cc2c(cc1OC)C(CCCCCC1c3cc(OC)c(OC)cc3CCN1C)N(C)CC2.Cl (centres unmarked) [Compound 4f, 1,5-bis[1-(6,7-dimethoxy-2-methyl-1,2,3,4-tetrahydroisoquinolyl)]-pentane hydrochloride]
  % of 125I-apamin displaced at 10 μM: 78%

## o-bis[1-(6,7,8-trimethoxy-2-methyl-1,2,3,4-tetrahydroisoquinolyl)]-xylene hydrochloride [Compound 4p]
  % of 125I-apamin displaced at 10 μM: 28%

## COc1cc2c(cc1OC)C(CCCC1c3cc(OC)c(OC)cc3CCN1C)N(C)CC2 (centres unmarked) [Compound 4d E1, 1,3-bis[1-(6,7-dimethoxy-2-methyl-1,2,3,4-tetrahydroisoquinolyl)]-propane hydrochloride]
  Ki / potential to interact with apamin-sensitive sites compared with NML: Ki superior to NML
Comparison in words with dequalinium
  Ki compared with dequalinium: Ki quite similar to dequalinium
Listed as 4d E1, hydrochloride
  Ki: 293 ± 22 nM

## COc1cc2c(c(OC)c1OC)C(CCCC1c3c(cc(OC)c(OC)c3OC)CCN1C)N(C)CC2 (centres unmarked) [Compound 4g E2, 1,3-bis[1-(6,7,8-trimethoxy-2-methyl-1,2,3,4-tetrahydroisoquinolyl)]-propane hydrochloride]
Listed as 4g E2, hydrochloride
  Ki: 1100 ± 103 nM

## COc1cc2c(cc1OC)C(Cc1ccc(CC3c4cc(OC)c(OC)cc4CCN3C)cc1)N(C)CC2 (centres unmarked) [Compound 4n E2]
Listed as 4n E2
  Ki: 1120 ± 46 nM

## COc1cc2c(cc1OC)[C@@H](CCC[C@H]1c3cc(OC)c(OC)cc3CCN1C)N(C)CC2 [Compound 4d MESO, 1,3-bis[1-(6,7-dimethoxy-2-methyl-1,2,3,4-tetrahydroisoquinolyl)]-propane hydrochloride]
  Ki: 1420 ± 116 nM

## COc1cc2c(cc1OC)C(CCCCC1c3cc(OC)c(OC)cc3CCN1C)N(C)CC2.Cl (centres unmarked) [Compound 4e E1, 1,4-bis[1-(6,7-dimethoxy-2-methyl-1,2,3,4-tetrahydroisoquinolyl)]-butane hydrochloride]
  Ki / potential to interact with apamin-sensitive sites compared with NML: Ki superior to NML
Listed as 4e E1, hydrochloride
  Ki: 588 ± 72 nM

## COc1cc2c(cc1OC)C(CCCC1c3cc(OC)c(OC)cc3CCN1C)N(C)CC2.Cl (centres unmarked) [Compound 4d, 1,3-bis[1-(6,7-dimethoxy-2-methyl-1,2,3,4-tetrahydroisoquinolyl)]-propane hydrochloride]
  % of 125I-apamin displaced at 10 μM: 82%

## COc1cc2c(cc1OC)C(Cc1ccc(CC3c4cc(OC)c(OC)cc4CCN3C)cc1)N(C)CC2 (centres unmarked) [Compound 4o, p-bis[1-(6,7-dimethoxy-2-methyl-1,2,3,4-tetrahydroisoquinolyl)]-xylene]
  % of 125I-apamin displaced at 10 μM: 90%

## COc1ccc(C[C@H]2c3cc(OC)c(OC)cc3CC[N+]2(C)C)cc1OC [NML, N-methyl-laudanosine, reference compound]
  % of 125I-apamin displaced at 10 μM: 54%

## COc1cc2c(c(OC)c1OC)C(CCCC1c3c(cc(OC)c(OC)c3OC)CCN1C)N(C)CC2.Cl (centres unmarked) [Compound 4g, 1,3-bis[1-(6,7,8-trimethoxy-2-methyl-1,2,3,4-tetrahydroisoquinolyl)]-propane hydrochloride]
  % of 125I-apamin displaced at 10 μM: 70%

## CN1CCc2ccccc2C1CCCCCC1c2ccccc2CCN1C.Cl (centres unmarked) [Compound 4c, 1,5-bis[1-(2-methyl-1,2,3,4-tetrahydroisoquinolyl)]-pentane hydrochloride]
  % of 125I-apamin displaced at 10 μM: 9%

## o-bis[1-(2-methyl-1,2,3,4-tetrahydroisoquinolyl)]-xylene hydrochloride [Compound 4j]
  % of 125I-apamin displaced at 10 μM: 19%

## COc1cc2c(cc1OC)C(CCCCC1c3cc(OC)c(OC)cc3CCN1C)N(C)CC2.Cl (centres unmarked) [Compound 4e, 1,4-bis[1-(6,7-dimethoxy-2-methyl-1,2,3,4-tetrahydroisoquinolyl)]-butane hydrochloride]
  % of 125I-apamin displaced at 10 μM: 72%

## COc1cc2c(c(OC)c1OC)C(CCCCC1c3c(cc(OC)c(OC)c3OC)CCN1C)N(C)CC2.Cl (stereo not drawn) [Compound 4h MESO, 1,4-bis[1-(6,7,8-trimethoxy-2-methyl-1,2,3,4-tetrahydroisoquinolyl)]-butane hydrochloride]
  Ki / potential to interact with apamin-sensitive sites compared with NML: Ki superior to NML
Listed as 4h MESO, hydrochloride
  Ki: 424 ± 33 nM

## COc1cc2c(c(OC)c1OC)C(CCCCC1c3c(cc(OC)c(OC)c3OC)CCN1C)N(C)CC2.Cl (centres unmarked) [Compound 4h, 1,4-bis[1-(6,7,8-trimethoxy-2-methyl-1,2,3,4-tetrahydroisoquinolyl)]-butane hydrochloride]
  % of 125I-apamin displaced at 10 μM: 86%

## COc1cc2c(cc1OC)C(CCCCC1c3cc(OC)c(OC)cc3CCN1C)N(C)CC2 (centres unmarked) [Compound 4e E2, 1,4-bis[1-(6,7-dimethoxy-2-methyl-1,2,3,4-tetrahydroisoquinolyl)]-butane hydrochloride]
Listed as 4e E2, hydrochloride
  Ki: 1200 ± 114 nM

## COc1cc2c(cc1OC)C(Cc1cccc(CC3c4cc(OC)c(OC)cc4CCN3C)c1)N(C)CC2 (centres unmarked) [Compound 4m E2]
Listed as 4m E2
  Ki: 1020 ± 27 nM

## COc1cc2c(cc1OC)C(CCCC1c3cc(OC)c(OC)cc3CCN1C)N(C)CC2 (centres unmarked) [Compound 4d E2, 1,3-bis[1-(6,7-dimethoxy-2-methyl-1,2,3,4-tetrahydroisoquinolyl)]-propane hydrochloride]
Listed as 4d E2, hydrochloride
  Ki: 1880 ± 105 nM

## COc1cc2c(cc1OC)C(Cc1ccc(CC3c4cc(OC)c(OC)cc4CCN3C)cc1)N(C)CC2 (centres unmarked) [Compound 4n E1]
Listed as 4n E1
  Ki: 1010 ± 144 nM

## COc1cc2c(cc1OC)C(Cc1cccc(CC3c4cc(OC)c(OC)cc4CCN3C)c1)N(C)CC2 (centres unmarked) [Compound 4m E1]
Listed as 4m E1
  Ki: 1280 ± 55 nM

## COc1cc2c(c(OC)c1OC)C(CCCCC1c3c(cc(OC)c(OC)c3OC)CCN1C)N(C)CC2 (centres unmarked) [Compound 4h E1, 1,4-bis[1-(6,7,8-trimethoxy-2-methyl-1,2,3,4-tetrahydroisoquinolyl)]-butane hydrochloride]
Listed as 4h E1, hydrochloride
  Ki: 2210 ± 156 nM

## m-bis[1-(6,7-dimethoxy-2-methyl-1,2,3,4-tetrahydroisoquinolyl)]-xylene hydrochloride [Compound 4n]
  % of 125I-apamin displaced at 10 μM: 74%
